“And” between values parts separate entries of the source, which are not always exact repeats. Equal values may be shown once. Blank lines part the entries; values can stand above or below the compound they belong to.
Assay: solvent given as SMILES

Compound: COc1ccc(/C=C/C2=CC(/C=C/c3ccc(OC)c4ccccc34)=[O+][B-](F)(F)O2)c2ccccc12
absorption maximum (in CC#N): 530 nm
absorption maximum (in CC(C)=O): 532 nm
absorption maximum (in CCOC(C)=O): 524 nm
absorption maximum (in CCOCC): 516 nm
absorption maximum (in ClC(Cl)(Cl)Cl): 523 nm
absorption maximum (in ClCCl): 536 nm

Compound: CC1(C)CC(/N=C/c2ccc3ccc4cccc5ccc2c3c45)CC(C)(C)N1[O]
absorption maximum (in C1CCCCC1): 360 nm
absorption maximum (in CC#N): 359 nm
absorption maximum (in CO): 359 nm
absorption maximum (in ClC(Cl)Cl): 362 nm

Compound: COc1ccc(C2=C3C(C)=CC(C)=[N+]3[B-](F)(F)n3c(C)cc(C)c32)cc1
absorption maximum (in Cc1ccccc1): 504 nm

Compound: Cc1ccc(-c2ccc(/C=C/c3ccc(Br)n3C)cn2)nc1
absorption maximum (in CC#N): 373 nm

Compound: COc1ccc(C#Cc2c3cc4ccccc4cc3c(C#C[Si](C(C)C)(C(C)C)C(C)C)c3cc4ccccc4cc23)cc1
absorption maximum (in ClCCl): 655 nm

Compound: COOCc1noc(-c2ccccc2)c1Cl
absorption maximum (in C1CCCCC1): 277 nm

Compound: CC(C)c1ccc2ccc3cccc4ccc1c2c34
absorption maximum (in CCCCCC): 338 nm
absorption maximum (in CO): 337 nm
absorption maximum (in ClCCl): 340 nm

Compound: COc1ccc(/C=C/c2ccc(-c3nnc(-c4ccc(-c5cc6ccccc6s5)cc4)o3)cc2)cc1
absorption maximum (in CC#N): 337 nm
absorption maximum (in CC(C)=O): 341 nm
absorption maximum (in CCCCCCCC): 337 nm
absorption maximum (in CCCCCCCCCCO): 346 nm
absorption maximum (in CCCCCCCCO): 347 nm
absorption maximum (in CCCCCO): 346 nm
absorption maximum (in CCCO): 345 nm
absorption maximum (in CN(C)C=O): 351 nm
absorption maximum (in CO): 345 nm
absorption maximum (in CS(C)=O): 348 nm

Compound: F[B-]1(F)n2c(-c3cccs3)cc(-c3cccs3)c2N=C2C(c3cccs3)=CC(c3cccs3)=[N+]21
absorption maximum (in C1CCOC1): 740 nm
absorption maximum (in CC#N): 733 nm
absorption maximum (in CS(C)=O): 752 nm
absorption maximum (in Cc1ccccc1): 743 nm
absorption maximum (in ClCCl): 740 nm and 742 nm

Compound: C(=C\c1ccc(-c2nnc(-c3ccc(/C=C/c4ccc(-c5nc(-c6ccccc6)c(-c6ccccc6)[nH]5)cc4)cc3)o2)cc1)/c1ccc(-c2nc(-c3ccccc3)c(-c3ccccc3)[nH]2)cc1
absorption maximum (in C1CCOC1): 396 nm
absorption maximum (in CC#N): 391 nm
absorption maximum (in CN(C)C=O): 397 nm
absorption maximum (in Cc1ccccc1): 397 nm

Compound: Nc1cccc2c1-c1ccccc1C2=O
absorption maximum (in C1CCCCC1): 427 nm
absorption maximum (in CC#N): 451 nm
absorption maximum (in CCO): 458 nm
absorption maximum (in c1ccccc1): 440 nm

Other lines, results leading:

absorption maximum (in CC#N): 694 nm
absorption maximum (in CS(C)=O): 705 nm
absorption maximum (in ClC(Cl)Cl): 703 nm
Compound: C#CCn1c2ccccc2c2cc(/C=C/C3=[N+]4C(=C(c5ccc(I)cc5)c5c(C)c(Cl)c(/C=C/c6ccc7c(c6)c6ccccc6n7CC#C)n5[B-]4(F)F)C(C)=C3Cl)ccc21

absorption maximum (in CO): 570 nm
Compound: CC1=CC(/C=C/c2ccc(OCCCN=[N+]=[N-])cc2)=[N+]2C1=C(c1ccc(N3CCCCC3)cc1)c1c(C)cc(C)n1[B-]2(F)F

absorption maximum (in C1CCCCC1): 389 nm
absorption maximum (in CC#N): 424 nm
absorption maximum (in CCO): 436 nm
absorption maximum (in c1ccccc1): 409 nm
Compound: CNc1ccc2c(c1)-c1ccccc1C2=O

absorption maximum (in ClC(Cl)Cl): 376 nm
Compound: COc1ccc(-c2ccc(-c3c4c(nc5ccccc35)-c3cc5c(cc3CC4)-c3nc4ccccc4c(-c4ccc(-c6ccc(OC)cc6)cc4)c3CC5)cc2)cc1

absorption maximum (in CCOC(C)=O): 416 nm
Compound: CCN1CCN(c2ccc(/N=N/c3cc(C(=O)OC)cc(C(=O)OC)c3)cc2)CC1

absorption maximum (in ClCCl): 340 nm
Compound: CC(C)(C)c1cc(-c2ccc(-c3cccs3)s2)c2c(c1)c1cc(C(C)(C)C)cc(-c3ccc(-c4cccs4)s3)c1n2-c1ccc(-c2cccs2)s1

absorption maximum (in ClC(Cl)Cl): 532 nm
Compound: CCCCN1C(=O)c2cc(Br)c3c4c(Br)cc5c6c(cc(Br)c(c7c(Br)cc(c2c37)C1=O)c64)C(=O)N(CCCC)C5=O

absorption maximum (in ClCCl): 364 nm
Compound: Cc1cc(C)c(C)c(-c2cc(-c3c(C)c(C)cc(C)c3C)c3ccc4c(-c5c(C)c(C)cc(C)c5C)cc(-c5c(C)c(C)cc(C)c5C)c5ccc2c3c54)c1C

From the Deep4Chem optical property database
